According to patent US20120196899A1, “METHODS AND PRODUCTS FOR TREATING INFLAMMATION” (Rock Creek Pharmaceuticals, Inc., priority 2010, published 2012):
Read-outs that look alike come from different tables or passages of the source.

Key:
nAChR α7 = target: T1, nAChR α7 (Homo sapiens, UniProt P36544); experiment: nAChR α7 channel agonist assay (FLIPR, with PNU-120596); format: cell-based; conditions: in presence of PNU-120596, 30 μM Ach + 10 μM PNU-120596 = 100%, HBPS = 0%
T1 construct: host or cells: CHO cells
Experimental: Therefore, the assay of agonist activity for either Ach or for the test articles was conducted in the presence of the positive allosteric modulator.

nAChR α3/β4 [1] = target: T2, nAChR α3/β4 (Homo sapiens, UniProt P30926+P32297); experiment: nAChR α3/β4 channel agonist assay (FLIPR, Fluo-8 calcium); conditions: 30 μM Ach = 100%, HBPS = 0%
Experimental: (§1) The following three (3) channels were evaluated: • 1. nAChR α3/β4 (encoded by the human CHRNA3 and CHRNB4 gene and stably expressed in CHO cells); • 2. nAChR α4/β2 (CHRNA4 and CHRNB2 gene and transiently expressed in HEK293 cells); and • 3. nAChR α7 (encoded by the human nicotinic α7 gene coexpressed in CHO cells with the chaperone RIC-3 encoded by the human RIC3 gene).
(§2) The ability of each test article to act as an agonist, a positive allosteric modulator or antagonist of three nAChR receptor channels was evaluated in the presence of 0.1 atropine. Both test articles were evaluated for responses on each nAChR channel at eight (8) concentrations: 0.3, 1, 3, 10, 30, 100, 300, and 1000 μM (n=4 for each concentration).
(§3) HEK293 or CHO cells were transiently or stably transfected with the appropriate human ion channel cDNAs. Stable transfectants were selected by coexpression with the antibiotic-resistance gene(s) incorporated into the expression plasmid(s). Selection pressure was maintained by including selection antibiotics in the culture medium. HEK293 cells were cultured in Dulbecco's Modified Eagle Medium/Nutrient Mixture F-12 (D-MEM/F-12) supplemented with 10% fetal bovine serum, 100 U/mL penicillin G sodium, 100 g/mL streptomycin sulfate and appropriate selection antibiotics. CHO cells were cultured in Ham's F-12 supplemented with 10% fetal bovine serum, 100 U/mL penicillin G sodium, 100 g/mL streptomycin sulfate and appropriate selection antibiotics.
(§4) For FLIPR TETRA™ assay, cells were plated in 384-well black wall, flat clear bottom microtiter plates (Type: BD Biocoat Poly-D-Lysine Multiwell Cell Culture Plate) at 20,000 to 30,000 cells per well (384-well plate). Cells were incubated at 37° C. overnight or until the cells reached a sufficient density in the wells (near confluent monolayer) to use in fluorescence assays. For α4β2 assay, cells were incubated at 27° C. for at least 7 hours before use.
(§5) Experiments were performed with either the FLIPR calcium sensitive dye kit (Fluo-8, ABDbioquest, for nAChR α3/β4 and nAChR α7) or FLIPR membrane potential kit (Molecular Devices, for nAChR α4/β2) according to the manufacturer's instructions. Briefly, cells were incubated with 201 dye for 30 min at 37° C. After dye loading period, for the agonist assay, 5 μl of the test, vehicle, or control articles at concentration of 5 times of final concentration were applied to the cells without stimulation. For the positive allosteric modulation (PAM) and antagonist assay, after test article application, the cells were stimulated with either low dose (for PAM) or high dose (for antagonist) of Ach.
(§6) Concentration-response data was fitted to a Hill equation of the following form:
(§7) where Base is the response at low concentrations of test article, Max is the maximum response at high concentrations, xhalf is the EC50 or IC50, the concentration of test article producing either half-maximal activation or inhibition, and rate is the Hill coefficient. Nonlinear least squares fits were made assuming a simple one-to-one binding model.
The ability of both test articles to act as an agonist of nAChR carried out in the absence of the positive control agonist. The signal elicited in the presence of the positive control agonist, 30 μM acetylcholine (Ach) was set to 100% and the signal from the vehicle control, HEPES-buffered physiological saline (HBPS) solution was set to 0%.

nAChR α4/β2 = target: T3, nAChR α4/β2 (Homo sapiens, UniProt P17787+P43681); experiment: nAChR α4/β2 channel agonist assay (FLIPR membrane potential); format: cell-based; conditions: 30 μM Ach = 100%, HBPS = 0%
T3 construct: host or cells: HEK293 cells, transient transfection
Experimental: as §1, §2, §3, §4, §5, §6, §7
The ability of each test article to act as an agonist of the nAChR carried out in the absence of the positive control agonist. The signal elicited in the presence of the positive control agonist (30 μM Ach) was set to 100% and the signal from the vehicle control (HBPS) was set to 0%. Values were considered significant (bold font) if the test article mean was three or more standard deviations above from the vehicle control mean.

nAChR α3/β4 [2] = target: T2, nAChR α3/β4; conditions: with 10 μM Ach (= 0%), 10 μM Ach + 1 μM epibatidine = 100%

T3 sequence (P17787 26-502): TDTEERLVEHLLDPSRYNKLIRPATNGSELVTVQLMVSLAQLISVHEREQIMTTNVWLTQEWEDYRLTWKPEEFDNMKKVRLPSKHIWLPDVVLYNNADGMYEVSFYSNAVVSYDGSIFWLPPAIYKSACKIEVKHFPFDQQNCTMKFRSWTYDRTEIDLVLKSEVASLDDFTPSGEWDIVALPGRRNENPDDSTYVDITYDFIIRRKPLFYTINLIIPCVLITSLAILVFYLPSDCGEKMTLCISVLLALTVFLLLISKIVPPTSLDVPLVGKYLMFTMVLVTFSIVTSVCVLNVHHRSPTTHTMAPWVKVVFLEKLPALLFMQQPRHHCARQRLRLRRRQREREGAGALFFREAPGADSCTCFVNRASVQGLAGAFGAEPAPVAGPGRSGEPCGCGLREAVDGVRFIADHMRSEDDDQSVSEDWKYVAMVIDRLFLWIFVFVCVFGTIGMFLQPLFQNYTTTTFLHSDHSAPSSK
T3 sequence (P43681 29-627): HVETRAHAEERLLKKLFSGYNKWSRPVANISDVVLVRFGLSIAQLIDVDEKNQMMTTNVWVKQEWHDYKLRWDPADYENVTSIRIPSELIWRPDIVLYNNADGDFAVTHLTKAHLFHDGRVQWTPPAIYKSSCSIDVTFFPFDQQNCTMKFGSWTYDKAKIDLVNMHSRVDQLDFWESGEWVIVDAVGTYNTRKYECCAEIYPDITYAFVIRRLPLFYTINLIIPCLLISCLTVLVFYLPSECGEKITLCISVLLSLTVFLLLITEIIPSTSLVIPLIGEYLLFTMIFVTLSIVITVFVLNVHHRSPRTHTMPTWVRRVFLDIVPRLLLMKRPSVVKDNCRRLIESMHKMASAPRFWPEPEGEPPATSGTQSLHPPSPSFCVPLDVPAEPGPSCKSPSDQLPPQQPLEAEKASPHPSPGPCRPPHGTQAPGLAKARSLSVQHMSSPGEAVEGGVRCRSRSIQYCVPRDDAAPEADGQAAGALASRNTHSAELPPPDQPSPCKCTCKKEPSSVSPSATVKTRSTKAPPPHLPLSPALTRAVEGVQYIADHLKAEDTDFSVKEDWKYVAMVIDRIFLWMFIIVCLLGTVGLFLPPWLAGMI
T1 sequence (P36544 23-502): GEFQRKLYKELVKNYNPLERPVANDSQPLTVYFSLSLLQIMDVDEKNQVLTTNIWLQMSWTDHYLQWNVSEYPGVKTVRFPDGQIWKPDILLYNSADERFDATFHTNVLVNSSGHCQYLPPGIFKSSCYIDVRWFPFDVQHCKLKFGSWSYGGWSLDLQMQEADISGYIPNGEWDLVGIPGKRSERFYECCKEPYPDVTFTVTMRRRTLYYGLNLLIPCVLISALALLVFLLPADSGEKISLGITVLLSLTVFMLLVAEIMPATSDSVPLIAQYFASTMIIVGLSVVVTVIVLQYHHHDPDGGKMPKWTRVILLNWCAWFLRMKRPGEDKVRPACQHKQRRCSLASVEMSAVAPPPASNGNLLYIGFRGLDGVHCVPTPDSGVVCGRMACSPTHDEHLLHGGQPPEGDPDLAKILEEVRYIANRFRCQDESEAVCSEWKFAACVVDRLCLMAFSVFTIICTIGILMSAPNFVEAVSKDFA
T2 sequence (P32297 32-505): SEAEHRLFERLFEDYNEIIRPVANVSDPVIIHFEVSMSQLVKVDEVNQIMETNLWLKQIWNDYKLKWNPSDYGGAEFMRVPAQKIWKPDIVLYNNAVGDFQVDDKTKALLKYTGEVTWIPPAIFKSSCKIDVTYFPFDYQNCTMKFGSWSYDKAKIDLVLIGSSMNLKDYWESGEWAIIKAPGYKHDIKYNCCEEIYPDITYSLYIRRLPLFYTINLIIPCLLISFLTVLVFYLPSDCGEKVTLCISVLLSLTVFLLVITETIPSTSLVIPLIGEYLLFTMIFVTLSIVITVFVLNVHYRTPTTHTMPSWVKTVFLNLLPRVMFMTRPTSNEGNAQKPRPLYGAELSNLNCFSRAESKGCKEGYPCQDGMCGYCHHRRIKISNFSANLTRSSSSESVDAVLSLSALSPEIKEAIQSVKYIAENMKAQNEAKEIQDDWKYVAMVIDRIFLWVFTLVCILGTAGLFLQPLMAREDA
T2 sequence (P30926 22-498): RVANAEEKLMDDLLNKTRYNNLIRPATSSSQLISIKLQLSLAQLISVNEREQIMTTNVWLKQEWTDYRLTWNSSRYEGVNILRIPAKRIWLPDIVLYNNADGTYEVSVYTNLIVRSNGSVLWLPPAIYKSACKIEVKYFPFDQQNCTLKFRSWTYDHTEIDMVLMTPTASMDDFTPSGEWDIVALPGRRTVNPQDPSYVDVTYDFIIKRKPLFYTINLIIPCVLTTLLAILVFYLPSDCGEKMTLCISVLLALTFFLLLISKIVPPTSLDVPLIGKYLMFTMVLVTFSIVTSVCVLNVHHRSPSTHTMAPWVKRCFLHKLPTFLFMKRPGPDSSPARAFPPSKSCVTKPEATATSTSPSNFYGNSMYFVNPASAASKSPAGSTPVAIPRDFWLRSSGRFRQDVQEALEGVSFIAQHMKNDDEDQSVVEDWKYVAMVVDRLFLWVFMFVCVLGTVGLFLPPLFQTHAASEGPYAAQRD

`C1=CCC(c2cccnc2)NC1` (racemic) [Anatabine (racemate)] was tested, and the “Normalized % Activation” value (nAChR α7; test conc 0.3 μM) was −1.81%, the “Normalized % Activation” value (nAChR α7; test conc 1 μM) was 0.34% and the “Normalized % Activation” value (nAChR α7; test conc 3 μM) was 0.78%. The “Normalized % Activation” value (nAChR α7; test conc 10 μM) was 1.65%, the “Normalized % Activation” value (nAChR α7; test conc 30 μM) was 2.27% and the “Normalized % Activation” value (nAChR α7; test conc 100 μM) was 5.69%. For the same compound, the “Normalized % Activation” value (nAChR α7; test conc 300 μM) was 14.45%, the “Normalized % Activation” value (nAChR α7; test conc 1000 μM) was 60.41% and the “Normalized % Activation” value (nAChR α3/β4 [1]; test conc 0.3 μM) was 1.32%. The “Normalized % Activation” value (nAChR α3/β4 [1]; test conc 1 μM) was −0.01%, the “Normalized % Activation” value (nAChR α3/β4 [1]; test conc 3 μM) was −1.53% and the “Normalized % Activation” value (nAChR α3/β4 [1]; test conc 10 μM) was −2.73%. For the same compound, the “Normalized % Activation” value (nAChR α3/β4 [1]; test conc 30 μM) was 4.93%, the “Normalized % Activation” value (nAChR α3/β4 [1]; test conc 100 μM) was 10.44% and the “Normalized % Activation” value (nAChR α3/β4 [1]; test conc 300 μM) was 16.97%. The “Normalized % Activation” value (nAChR α4/β2; test conc 0.3 μM) was 0.28%, the “Normalized % Activation” value (nAChR α4/β2; test conc 1 μM) was 5.36% and the “Normalized % Activation” value (nAChR α4/β2; test conc 3 μM) was 10.41%. The “Normalized % Activation” value (nAChR α4/β2; test conc 10 μM) was 12.65%, the “Normalized % Activation” value (nAChR α4/β2; test conc 30 μM) was 9.07% and the “Normalized % Activation” value (nAChR α4/β2; test conc 100 μM) was 16.96%. The “Normalized % Activation” value (nAChR α4/β2; test conc 300 μM) was 50.60%, the “Normalized % Activation” value (nAChR α4/β2; test conc 1000 μM) was 85.29% and the “Normalized % Potentiation” value (nAChR α3/β4 [2]; test conc 0.3 μM) was −1.98%. The “Normalized % Potentiation” value (nAChR α3/β4 [2]; test conc 1 μM) was −4.08%, the “Normalized % Potentiation” value (nAChR α3/β4 [2]; test conc 3 μM) was −2.88% and the “Normalized % Potentiation” value (nAChR α3/β4 [2]; test conc 10 μM) was −3.20%. The “Normalized % Potentiation” value (nAChR α3/β4 [2]; test conc 30 μM) was −8.50%, the “Normalized % Potentiation” value (nAChR α3/β4 [2]; test conc 100 μM) was −9.46% and the “Normalized % Potentiation” value (nAChR α3/β4 [2]; test conc 300 μM) was −9.38%. The “Normalized % Potentiation” value (nAChR α3/β4 [2]; test conc 1000 μM) was −9.17%.
